Values quoted from earlier work in US8673972B2, “Human papilloma virus as predictor of cancer prognosis” (Foundation Medicine, Inc., priority 2012, dated 2014).

How the values were obtained:
Details in all cases: stated in words only
CDK2 = CDK2 (Homo sapiens, UniProt P24941)
CDK7 = CDK7 (Homo sapiens, UniProt P50613)
CDK9 = CDK9 (Homo sapiens, UniProt P50750)
CDK4 = CDK4 (Homo sapiens, UniProt P11802)
CDK1 = CDK1 (Homo sapiens, UniProt P06493)
Sequence of CDK1 (P06493 whole entry): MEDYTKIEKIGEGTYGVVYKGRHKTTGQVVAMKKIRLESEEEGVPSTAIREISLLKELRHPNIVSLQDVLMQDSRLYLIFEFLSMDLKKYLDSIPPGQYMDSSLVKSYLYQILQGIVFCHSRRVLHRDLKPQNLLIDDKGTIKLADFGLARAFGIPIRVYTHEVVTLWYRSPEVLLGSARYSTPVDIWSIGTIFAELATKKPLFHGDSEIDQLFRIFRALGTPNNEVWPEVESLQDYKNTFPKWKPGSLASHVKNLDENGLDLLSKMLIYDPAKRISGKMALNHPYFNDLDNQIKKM
Sequence of CDK1 (P14635 whole entry partner): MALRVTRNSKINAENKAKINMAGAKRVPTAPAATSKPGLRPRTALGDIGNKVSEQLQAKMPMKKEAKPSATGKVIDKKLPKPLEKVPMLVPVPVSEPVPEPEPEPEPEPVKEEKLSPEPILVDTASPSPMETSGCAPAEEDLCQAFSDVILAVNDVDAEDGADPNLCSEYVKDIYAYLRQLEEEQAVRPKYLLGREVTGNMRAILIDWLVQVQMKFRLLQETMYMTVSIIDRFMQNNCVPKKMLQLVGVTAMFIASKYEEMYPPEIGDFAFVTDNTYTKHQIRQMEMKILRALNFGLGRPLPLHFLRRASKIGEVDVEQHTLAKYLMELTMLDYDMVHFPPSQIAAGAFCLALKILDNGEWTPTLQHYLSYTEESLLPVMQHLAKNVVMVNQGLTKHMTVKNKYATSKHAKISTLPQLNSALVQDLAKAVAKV

Sequence of CDK4 (P11802 whole entry): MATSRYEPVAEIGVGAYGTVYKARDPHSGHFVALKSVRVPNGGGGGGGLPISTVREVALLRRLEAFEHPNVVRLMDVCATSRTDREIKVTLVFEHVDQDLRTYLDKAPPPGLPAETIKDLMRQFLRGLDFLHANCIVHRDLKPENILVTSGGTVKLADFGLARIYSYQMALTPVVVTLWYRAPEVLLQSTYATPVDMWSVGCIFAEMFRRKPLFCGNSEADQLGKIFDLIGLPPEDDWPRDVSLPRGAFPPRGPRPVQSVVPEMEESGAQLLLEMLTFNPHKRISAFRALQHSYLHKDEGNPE
Sequence of CDK4 (P24385 whole entry partner): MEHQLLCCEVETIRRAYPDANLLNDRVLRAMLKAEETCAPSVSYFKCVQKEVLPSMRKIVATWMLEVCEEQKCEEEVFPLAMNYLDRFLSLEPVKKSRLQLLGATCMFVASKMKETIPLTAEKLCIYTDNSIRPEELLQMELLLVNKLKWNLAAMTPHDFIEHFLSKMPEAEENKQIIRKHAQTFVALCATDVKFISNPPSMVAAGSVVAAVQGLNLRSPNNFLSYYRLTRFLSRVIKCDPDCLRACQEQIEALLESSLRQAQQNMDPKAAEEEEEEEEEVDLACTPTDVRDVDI
Sequence of CDK9 (P50750 whole entry): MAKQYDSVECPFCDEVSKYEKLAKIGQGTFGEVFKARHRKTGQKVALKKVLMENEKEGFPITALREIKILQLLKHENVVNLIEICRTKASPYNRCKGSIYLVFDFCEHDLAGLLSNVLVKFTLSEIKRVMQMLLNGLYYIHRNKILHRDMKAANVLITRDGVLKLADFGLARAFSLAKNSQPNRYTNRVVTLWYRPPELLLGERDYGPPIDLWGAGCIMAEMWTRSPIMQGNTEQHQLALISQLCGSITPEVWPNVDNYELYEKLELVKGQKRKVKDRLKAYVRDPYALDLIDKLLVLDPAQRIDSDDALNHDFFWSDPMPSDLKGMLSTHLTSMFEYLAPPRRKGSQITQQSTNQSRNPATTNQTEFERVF
Sequence of CDK9 (O60563 whole entry partner): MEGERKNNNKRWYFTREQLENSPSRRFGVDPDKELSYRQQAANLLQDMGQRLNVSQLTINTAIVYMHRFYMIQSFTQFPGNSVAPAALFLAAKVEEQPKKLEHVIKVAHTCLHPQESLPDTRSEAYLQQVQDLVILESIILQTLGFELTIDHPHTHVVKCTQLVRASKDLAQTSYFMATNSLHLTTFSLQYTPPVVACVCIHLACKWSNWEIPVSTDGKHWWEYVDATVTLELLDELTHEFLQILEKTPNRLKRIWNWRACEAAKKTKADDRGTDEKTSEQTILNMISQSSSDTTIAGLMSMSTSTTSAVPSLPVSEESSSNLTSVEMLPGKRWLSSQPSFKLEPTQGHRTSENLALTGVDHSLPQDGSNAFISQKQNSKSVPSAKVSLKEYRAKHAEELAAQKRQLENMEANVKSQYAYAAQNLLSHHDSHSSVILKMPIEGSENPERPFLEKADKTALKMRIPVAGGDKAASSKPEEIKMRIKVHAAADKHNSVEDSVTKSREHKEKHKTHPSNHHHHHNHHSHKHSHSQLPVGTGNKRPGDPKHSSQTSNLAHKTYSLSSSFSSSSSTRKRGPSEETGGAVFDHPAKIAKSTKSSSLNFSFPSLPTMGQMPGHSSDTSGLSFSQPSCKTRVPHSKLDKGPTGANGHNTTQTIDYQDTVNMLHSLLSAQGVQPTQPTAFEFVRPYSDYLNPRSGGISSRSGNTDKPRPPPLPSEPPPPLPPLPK
Sequence of CDK7 (P50613 whole entry): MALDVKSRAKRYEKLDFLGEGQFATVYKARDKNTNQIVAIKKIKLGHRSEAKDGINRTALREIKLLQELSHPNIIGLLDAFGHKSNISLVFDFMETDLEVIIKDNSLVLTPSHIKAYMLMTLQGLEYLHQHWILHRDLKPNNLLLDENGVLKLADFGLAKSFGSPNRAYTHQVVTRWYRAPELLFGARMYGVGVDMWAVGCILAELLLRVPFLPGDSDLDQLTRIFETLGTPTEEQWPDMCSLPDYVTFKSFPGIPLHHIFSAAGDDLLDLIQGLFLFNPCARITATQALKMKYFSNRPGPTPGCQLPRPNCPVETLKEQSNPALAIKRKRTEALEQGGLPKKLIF
Sequence of CDK7 (P51946 whole entry partner): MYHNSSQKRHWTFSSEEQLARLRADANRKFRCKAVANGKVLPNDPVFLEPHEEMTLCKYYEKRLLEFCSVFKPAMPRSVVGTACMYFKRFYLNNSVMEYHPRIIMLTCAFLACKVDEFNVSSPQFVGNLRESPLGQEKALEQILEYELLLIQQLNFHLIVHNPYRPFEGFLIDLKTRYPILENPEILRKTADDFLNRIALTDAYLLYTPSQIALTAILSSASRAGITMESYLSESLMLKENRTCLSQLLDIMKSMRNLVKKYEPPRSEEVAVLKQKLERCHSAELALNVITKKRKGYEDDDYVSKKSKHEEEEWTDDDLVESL
Sequence of CDK7 (P51948 whole entry partner): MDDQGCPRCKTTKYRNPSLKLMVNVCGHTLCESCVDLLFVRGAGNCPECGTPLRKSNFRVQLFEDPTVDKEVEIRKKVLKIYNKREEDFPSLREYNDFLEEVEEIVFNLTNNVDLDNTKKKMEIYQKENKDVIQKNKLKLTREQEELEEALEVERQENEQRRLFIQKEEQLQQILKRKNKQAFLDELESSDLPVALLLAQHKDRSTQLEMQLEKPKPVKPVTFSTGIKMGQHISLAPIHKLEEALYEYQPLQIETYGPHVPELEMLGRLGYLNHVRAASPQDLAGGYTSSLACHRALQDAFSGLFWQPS

CC1(C)/C(=C2/C(=O)Nc3ccc(S(N)(=O)=O)cc32)Nc2ccccc21 [ZK-304709, (Z)-3,3-dimethyl-2′-oxo-[2,3′-biindolinylidene]-5′-sulfonamide]
nanomolar range: IC50 CDK2, in words (CDK2) | IC50 CDK7, in words (CDK7) | IC50 CDK9, in words (CDK9) | IC50 CDK4, in words (CDK4) | IC50 CDK1, in words (CDK1)
